We go through ten molecules from article PMC10794626, “Investigations of potential non-amino acid SNAT2 inhibitors” (Frontiers in Pharmacology, 2024).

Structures are written as SMILES. ≈ marks a conversion by molar mass, not a printed value. Counter-ions that a name gives are not always drawn. Like-named read-outs stand apart in the source and are kept apart here.

In one data set the test system is PC-3 cells. Set-up: method as in Nielsen et al., 2022. The note with it: ref Nielsen et al., 2022, read-out: Km of uptake; cited from earlier work.
In a further data set the target is T1, SNAT2 (Homo sapiens, UniProt Q96QD8).
T1 construct: endogenous in cells; host or cells: PC-3 cells (ECACC 90,112,714), 24 h in hyperosmotic medium
T1 sequence (Q96QD8 1-506): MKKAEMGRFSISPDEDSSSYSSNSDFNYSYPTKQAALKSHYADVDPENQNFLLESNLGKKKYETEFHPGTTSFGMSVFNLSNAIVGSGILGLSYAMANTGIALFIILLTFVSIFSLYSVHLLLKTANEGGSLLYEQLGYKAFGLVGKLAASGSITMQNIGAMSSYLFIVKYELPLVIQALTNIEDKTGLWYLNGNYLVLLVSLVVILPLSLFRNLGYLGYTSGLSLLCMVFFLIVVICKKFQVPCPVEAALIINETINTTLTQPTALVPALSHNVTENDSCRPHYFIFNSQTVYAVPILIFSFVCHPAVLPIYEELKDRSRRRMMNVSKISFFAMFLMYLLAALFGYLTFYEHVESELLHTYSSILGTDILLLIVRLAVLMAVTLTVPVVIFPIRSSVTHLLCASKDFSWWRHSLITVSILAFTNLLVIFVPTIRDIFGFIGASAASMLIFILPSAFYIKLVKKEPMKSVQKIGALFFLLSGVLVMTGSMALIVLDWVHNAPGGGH
Description: 3H-Gly uptake in hyperosmotically treated PC-3 cells. In kind it is cell-based. The following applies: for Inhibition of 3H-Gly uptake (overall finding, in words): concentration not given, 54F at the highest soluble concentration. On the procedure:
PC-3 cells (ECACC 90,112,714) were obtained from the European Collection of Authenticated Cell Cultures (ECACC; UK Health Security Agency, Salisbury, United Kingdom) and were received in passage 31. […] The cells were kept incubated at 37°C in an atmosphere of 5% CO2 and 94%–97% relative humidity and the culture medium was changed every 2–3 days. For hyperosmotic stimulation, PC-3 cells were incubated in hyperosmotic media for 24 h before the uptake experiment. The hyperosmotic media was made by supplementing normal isoosmotic culture medium with 200 mM raffinose to reach an osmolality of approximately 500 mOsm ⋅ kg^−1. For uptake studies, the PC-3 cells were seeded in 24-well plates (area of 1.9 cm^2) at a density of 1.5 ⋅ 10^5 cells ⋅ cm^−2 2 days before the experiment. Experiments were performed using PC-3 cells in passages 2–15 after thawing.
Hyperosmotically treated PC-3 cells were used to study the uptake of radiolabeled ^3H-Gly. Solutions were prepared using Hanks Balanced Salt Solution (HBSS), which consisted of the following (mM): CaCl2, 1.26; MgCl2, 0.49; MgSO4, 0.41; KCl, 5.33; KH2PO4, 0.44; NaCl, 138; Na2HPO4, 0.34; D-glucose, 5.56; NaHCO3, 4.17. HBSS was supplemented with 10 mM HEPES and adjusted to pH 7.4 ± 0.01 (HBSS*) with […]. Donor solutions contained 0.5 μCi/mL of ^3H-glycine (11.1 nM). MMTC was also investigated at a substrate concentration of 100 µM Gly, which was achieved by the addition of unlabeled Gly to donor solutions containing 0.5 μCi/mL of ^3H-Gly (11.1 nM). […] Before starting the uptake experiment the media was aspirated, and the cells were preincubated in HBSS* for 15 min at 37°C and 220 rpm. To initiate the uptake study, the buffer was removed and 300 µL of prewarmed (37°C) donor solution was added to the cells and incubated at 37°C. During incubation, the cells were circularly rotated at 220 rpm using a Talboys incubating microplate shaker (Troemner, Thorofare, NJ, United States). After 5 min, the uptake experiment was terminated by removing the buffer solutions by vacuum suction, and the cells were washed thrice with 500 µL ice-cold HBSS. […] The cells were then detached by applying 200 µL of 0.1% Triton-X 100 for at least 25 min and cells were then transferred to scintillation vials along with 2 mL of Ultima Gold scintillation fluid. The vials were vortexed before being analyzed by a liquid scintillation counter, which was a TriCarb 4910 TR from PerkinElmer (Waltham, MA, United States).
^3H-Gly uptake values were normalized to the control uptake of each experiment, but without subtracting any background uptake.
Statistical differences were tested in GraphPad Prism 9.4.1 using one-way ANOVA followed by Dunnett’s multiple comparison test. The significance level used was p < 0.05 (*). Data are represented as means ± SEM from independent cell passages (n) unless otherwise stated.

A short description of data set [1]: Equilibrium solubility in HBSS* buffer (HPLC-UV). The following applies: HEPES buffered HBSS (HBSS*) buffer, pH 7.4, 37°C, mean ± SD, N = 3. In kind it is physicochemical. On the procedure: The mobile phases (MP) consisted of ultra-pure water containing 0.1% trifluoroacetic acid (MP A) and acetonitrile containing 0.1% trifluoroacetic acid (MP B). A reversed-phase column (Nova-Pak® C18, 4 μm, 3.9 × 150 mm, Waters, Milford, MA, United States) was applied and maintained at 22°C. The flow was constant at 0.6 mL ⋅ min^−1 with an isocratic elution of 40% MP A and 60% MP B for 53B, 55B, and 57B, an isocratic elution of 30% MP A and 70% MP B with a constant flow of 0.8 mL ⋅ min^−1 for MMTC, and an isocratic elution of 60% MP A and 40% MP B with a constant flow of 0.6 mL ⋅ min^−1 for […]. Samples of 20 μL, maintained at 25°C, were injected and all five compounds were measured at 270 nm. […] The calibration curves ranged from 5 to 30 µM for MMTC and 53B and from 7.5 to 30 µM for 54F, 55B, and 57B. Linear regression of peak height as a function of concentration was analyzed using GraphPad Prism 9.4.1.
The 5 mL vials were then left on a rotator covered in aluminum foil at 37°C. After 72 h rotation, the solutions were equally distributed into three 1.5 mL microtubes, to do triplicate measurements, and centrifuged at 10,000 g at room temperature for 10 min. The supernatant was removed and for 53B, 54F, and 57B the supernatant was diluted 1:2 with their respective mobile phases. For MMTC and 55B, the supernatant was diluted 2:1 with their respective mobile phase. The diluted samples were analyzed by HPLC-UV as described in Section 2.4.
For the quantification of MMTC, 53B, 54F, 55B, and 57B a linear regression was made of each of the calibration curves, where the known concentrations were plotted as a function of the peak height.

The subject of another data set is ASCT2. Set-up: method as in Schulte et al., 2016; Schulte et al., 2018. The note with it: HEK293 cells, ref Schulte et al., 2016, 2018; cited from earlier work.
Data set [2] in a line: Kinetic solubility of MMTC diluted from DMSO stock into HBSS*. In kind it is physicochemical. The note with it: HBSS* buffer, 37°C. As for the experimental part: Quantification of compounds was performed using a Waters 2695 HPLC system (Waters Corporation, MA, United States) connected to a Waters 2487 Dual λ Absorbance Detector (Waters Corporation, MA, United States). The mobile phases (MP) consisted of ultra-pure water containing 0.1% trifluoroacetic acid (MP A) and acetonitrile containing 0.1% trifluoroacetic acid (MP B). A reversed-phase column (Nova-Pak® C18, 4 μm, 3.9 × 150 mm, Waters, Milford, MA, United States) was applied and maintained at 22°C. The flow was constant at 0.6 mL ⋅ min^−1 with an isocratic elution of 40% MP A and 60% MP B for 53B, 55B, and 57B, an isocratic elution of 30% MP A and 70% MP B with a constant flow of 0.8 mL ⋅ min^−1 for MMTC, and an isocratic elution of 60% MP A and 40% MP B with a constant flow of 0.6 mL ⋅ min^−1 for […]. Samples of 20 μL, maintained at 25°C, were injected and all five compounds were measured at 270 nm. MMTC, 53B, 54F, 55B, and 57B had retention times of 4.00, 2.47, 5.14, 2.92, and 4.00 min, respectively. […] Linear regression of peak height as a function of concentration was analyzed using GraphPad Prism 9.4.1. […]
The 5 mL vials were then left on a rotator covered in aluminum foil at 37°C. […] The diluted samples were analyzed by HPLC-UV as described in Section 2.4. […]

Setting [3] is: at soluble conditions / within soluble concentration range.

What is called Km is the substrate concentration at which the rate is half of its maximum. `O=C(O)[C@@H]1CCCN1` [Pro]: the Km in the data set with PC-3 cells is 780 ± 100 µM.

Regarding `C[N+](C)(C)CC(=O)O` [betaine], the “Inhibition of Gly uptake (in words)” value at SNAT2 (50 mM betaine, 20 mM Gln, Figure 1) is “almost completely inhibits”. Further, at SNAT2 (50 mM, 11.1 nM 3H-Gly, 5 min), the “Inhibition of 3H-Gly uptake” value is listed as “around 86%”.

The solubility (thermodynamic) is solubility found after equilibrating the solid with the medium. The molecule `Cc1nc(-n2nc(C)c(Cc3ccc(Cl)cc3)c2C)sc1C(=O)N1CCN(C)CC1` [57B] gave a thermodynamic solubility in data set [1] (aqueous buffer) of 27.5 ± 1 µM (≈ 12.2 µg/mL). For the same molecule, the “Inhibition of 3H-Gly uptake” value at SNAT2 (setting [3]) was “no inhibition”.

On to `CC(C)c1ccc(S(=O)(=O)Nc2ccc3nc(S(C)(=O)=O)sc3c2)cc1` [54F], for which the thermodynamic solubility in data set [1] (aqueous buffer) worked out at 56.1 ± 0.5 µM (≈ 23 µg/mL). Besides, on SNAT2 (50 µM compound, 11.1 nM 3H-Gly, 5 min, 37°C, 1% DMSO), the “Inhibition of 3H-Gly uptake compared to control” value is “approximately 20%”. On SNAT2, the “Inhibition of 3H-Gly uptake (overall finding, in words)” value is listed as “significant, but small, inhibition”.

As to `NCC(=O)O` [Gly, glycine], the Km in the data set with PC-3 cells was 750 ± 160 µM.

With `N=C(N)NCCC[C@H](N)C(=O)O` [L-Arg, L-arginine hydrochloride], the “Effect on 3H-Gly uptake” value at SNAT2 (20 mM, 11.1 nM 3H-Gly, 5 min) is recorded as “did not affect the uptake significantly”.

By IC50 is commonly meant the concentration at which inhibition is half-maximal. In the case of `Cc1cccc(COc2ccccc2CN(CC[C@H](N)C(=O)O)Cc2ccccc2OCc2cccc(C)c2)c1` [V-9302], the IC50 with ASCT2 is 7 to 10 µM.

As for `Cc1ccccc1Nc1c(-c2ccc(N3CCOCC3)cc2)nc2cnccn12` [53B], in data set [1] (aqueous buffer), the thermodynamic solubility was 24.9 ± 0.8 µM (≈ 9.6 µg/mL). Moreover, the “Inhibition of 3H-Gly uptake” value on SNAT2 (setting [3]) is “no inhibition”.

With `COC(=O)c1ccccc1NC(=O)Nc1c(-c2ccncc2)[nH]c2ccc(Cl)cc12` [55B], the thermodynamic solubility in data set [1] (aqueous buffer) is 13.2 ± 1.6 µM (≈ 5.56 µg/mL); in data set [1], 13.3 µM (≈ 5.6 µg/mL). For the same molecule, the “Inhibition of 3H-Gly uptake” value at SNAT2 (setting [3]) is “no inhibition”.

For `Cc1ccc(S(=O)(=O)N(C)c2ccsc2C(=O)NCc2ccccc2C(F)(F)F)cc1` [MMTC, 3-(N-methyl (4-methylphenyl)sulfonamido)-N-(2-trifluoromethylbenzyl)thiophene-2-carboxamide], in data set [1] (aqueous buffer), the thermodynamic solubility is below 1.8 µM. Besides, the solubility kinetic in data set [2] (aqueous buffer, kinetic from dmso stock, within 15 min, remained stable for at least 45 min, read-out: MMTC concentration after dilution of DMSO stock to 10 µM in HBSS*) was around 2.5 µM (≈ 1.17 µg/mL); in data set [2] (pH 7.4, HBSS*, during the course of the uptake study, read-out: Kinetic solubility), 2.5 to 10 µM (≈ 1.17 to 4.69 µg/mL). For the same molecule, the “Inhibition of Gly uptake” value at SNAT2 (1 µM MMTC, substrate concentration 100 µM Gly, Supplementary Figure S1, n = 1) is “does not inhibit”. The “Inhibition of SNAT2-mediated 3H-Gly uptake” value on SNAT2 (1 µM compound, 11.1 nM 3H-Gly, 5 min, 37°C, 1% DMSO) is listed as “no inhibition”; on SNAT2 (5 µM compound, 11.1 nM 3H-Gly, 5 min, 37°C, 1% DMSO) it was “no inhibition”. Also, the “Inhibition of 3H-Gly uptake (overall finding, in words)” value on SNAT2 is “did not inhibit”.
